Entries after “also recorded” stand apart in the source; their conditions may differ. Where no end group is shown, it is not given here.
Columns and labels:
[1] = tested on: Staphylococcus aureus (ATCC strain 6538P); assay type: cell-based; details: ATCC strain 6538P
Procedure: (§1) Bacterial Stocks—ATCC derived stock bacteria were obtained from Oxoid Limited. Pseudomonas aeruginosa (ATCC strain 9027) or Staphylococcus aureus (ATCC strain 6538P) were obtained in ‘Cultiloop’ format. Stocks were prepared by inoculating 20 ml of LB broth with a single Cultiloop, and incubating overnight at 37° C. Cells present after overnight incubation were harvested by removing larger aggregates by centrifugation (3000 g, 10 minutes), and withdrawing 16 ml of the supernatant, which was likely to contain mainly planktonic bacteria. To this, 4 ml of sterile glycerol was added (the latter having been sterilised by autoclaving). The resultant suspension was divided between 15× 1 ml cryovials before freezing at −85° C.
(§2) Preliminary experiments were carried out to estimate the amount to dilute bacterial stocks which when on addition of 25 μl of diluted stock to 100 μl of fresh LB broth would result in bacteria in log phase growth after overnight incubation at 37° C.
(§3) The peptides were examined for antibacterial efficacy against Staphylococcus aureus. To test the efficacy of peptides, dilutions of test peptides or PBS (for use as a control) were prepared in LB broth, and 100 μl aliquots of these placed in 96-well plates. A vial of planktonic bacterial stock was thawed in a 37° C. incubator and diluted to the level previously determined which would produce log phase growth after overnight incubation (see above). 25 μl of this bacterial dilution was then added to the test wells (some wells containing LB broth without peptide were left without any bacterial inoculation, these being used as a blank). After overnight growth, the concentration of bacteria in individual wells was assessed by measuring absorbance at 620 nm, in a microplate spectrophotometer. The average absorbance of wells for specific concentrations of peptides was calculated, and from this the percentage inhibition (relative to untreated wells) was also calculated and plotted against concentration (along with an estimate of error on that % inhibition).
(§4) The inventor constructed an expanded library of peptides derived from either apolipoprotein B or apolipoprotein E in order to further evaluate polypeptides in accordance with the invention. Further experiments were then conducted to investigate the antibacterial activity of this peptide library against the bacteria P. aeroginosa, S. aureus and S. pneumoniae. The methods used to determine the IC50 values for each peptide were as described in the Example 1.

[2] = tested on: Pseudomonas aeruginosa (ATCC strain 9027); assay type: cell-based; details: for IC50: ATCC strain 9027
Procedure: as §1, §2, §3
Peptides in accordance with the invention were also examined for antibacterial efficacy against Pseudomonas aeruginosa using the same technique as described above to calculate the IC50 values.
Points were obtained by dividing the average for six treated wells by the average for six untreated wells, and bars show an estimate of the error for these calculated values.
as §4

[3] = tested on: Saccharomyces cerevisiae yeast cells (strain GenT01); assay: Gentronix GreenScreen GC yeast genotoxicity assay; assay type: cell-based; details: concentrations up to and including 100 μM, FIGS. 6A-6C
Procedure: A liquid handling robot is used to produce a serial dilution series of each test compound in a 96-well, black microplate with an optically clear base. […] In addition, a series of genotoxic and cytotoxic standards and non-toxic controls are run to provide internal quality control. The plates are covered with a breathable membrane and incubated overnight, without shaking, at 25° C.
After incubation, the microplates are uncovered and data collected using a Tecan Ultra 384 microplate reader. This instrument provides measurements of light absorbance and fluorescence in microplates; a standard fluorescein filter set (excitation 485/25 and emission 535/25) is used. Absorbance is read at 620 nm and is proportional to cell proliferation (which is lowered by toxic analytes). Fluorescence is proportional to the activity of the DNA repair system (increased by genotoxic analytes). The yeast cultures used are a genetically modified strain that express a green fluorescent protein whenever the cells carry out DNA damage repair. Fluorescence is normalised to the absorbance signal to correct for variation in cell yield caused by any cytolytic activity of the test compounds against the yeast cells. This produces a “fluorescence per cell” measurement termed “brightness”. In addition to the Gentronix Assay yeast strain (GenT01), a control Saccharomyces cerevisiae strain (GenC01) is also used, which is identical except for its ability to produce green fluorescent protein is disabled. This strain is used to provide a control to allow correction for substances which may be either autofluorescent themselves or which induce an autofluorescence in the yeast cells. The data collected is simply transferred into a Excel template where result evaluation sheets are automatically produced. The sheets contain the processed results in both a graphical and tabulated format, with automatic assessment of the result, i.e. positive or negative, and calculation of the lowest effective concentration (LEC), for both genotoxicity and cytotoxicity. […]

[4] = tested on: Staphylococcus aureus, Pseudomonas aeruginosa, and Streptococcus pneumoniae; assay: Antibacterial activity, overall statements over the test bacteria; assay type: cell-based
Description: The inventors conducted exhaustive experiments to assess the antibacterial activity of peptides from apolipoproteins and derivatives thereof. Peptides and derivatives from ApoE and ApoB were a particular focus. […] Example 1 illustrates the efficacy of the polypeptides according to the invention compared to apoE141-149 and apoB3359-3367 (i.e. non-tandem repeats) and other peptides derived from apolipoproteins.
The activity of polypeptides in accordance with the invention can be seen in Tables 5, 6, 7 and 8.
as §3, §4

Streptococcus pneumoniae = assay type: cell-based
Procedure: as §3, with “inhibition). […] The inventor constructed an expanded library of peptides derived from either apolipoprotein B or apolipoprotein E in order to further evaluate polypeptides in accordance with the invention. Further experiments were then conducted to investigate the antibacterial activity of this peptide library against the bacteria P. aeroginosa, S. aureus and S. pneumoniae. The methods used to determine the IC50 values for each peptide were as described in the Example 1.” for “inhibition).”

bacteria = details: Peptides, 21: 327-330 (2000); cited from earlier work

Substance: Ac-WRKWRKRWWLRKLRKRLL-NH2 [GIN 34]
- IC50 [1]: 7 µM
- IC50 [2]: 3 µM
- Effectiveness against Pseudomonadales, in particular P. aeruginosa, in words ([2]; summary in description): particularly effective
- Genotoxic response in test yeast strain (GenT01) [3]: failed to produce any genotoxic response
- Antibacterial activity, in words, bacterium not specified [4]: particularly effective

Substance: Ac-WRWRKRWRKWRWRKRWRK-NH2 [MU_27]
- IC50 (Streptococcus pneumoniae): 46 µM
- Genotoxic response in test yeast strain (GenT01) [3]: failed to produce any genotoxic response

Substance: HRWRKRWRKHRWRKRWRK-NH2 (C-terminus assumed) [MU_36]
- IC50 [1]: 40 µM
- IC50 [2]: > 53 µM
- IC50 (Streptococcus pneumoniae): > 53 µM

Substance: HRWRKRWRKWRWRKRWRK-NH2 (C-terminus assumed) [MU_31]
- IC50 [1]: 17 µM
- IC50 [2]: 12 µM
- IC50 (Streptococcus pneumoniae): 42 µM

Substance: KRWRKRWRKWRWRKRWRK-NH2 (C-terminus assumed) [MU_29]
- IC50 [1]: 23 µM
- IC50 [2]: 7.5 µM
- IC50 (Streptococcus pneumoniae): 52 µM

Substance: LRVRLASHLRKLRKRLLRDADDLQKRLAVY [apoE133-162, 30-mer monomeric peptide of Azuma et al]
- Antibacterial activity reported by Azuma et al., in words (bacteria): comparable with that of the antibiotic gentamicin

Substance: LRWRKRWRKLRWRKRWRK-NH2 (C-terminus assumed) [MU_35]
- IC50 [1]: 31 µM
- IC50 [2]: 23 µM
- IC50 (Streptococcus pneumoniae): 53 µM

Substance: LRWRKRWRKWRWRKRWRK-NH2 (C-terminus assumed) [MU_30]
- IC50 [1]: 15 µM
- IC50 [2]: 15 µM
- IC50 (Streptococcus pneumoniae): 38 µM
- Antibacterial activity, in words, bacterium not specified [4]: particularly effective

Substance: RRKRRKRRRRRKRRKRRR-NH2 (C-terminus assumed) [MU_16]
- IC50 [2]: > 53 µM
- IC50 (Streptococcus pneumoniae): > 53 µM

Substance: RRWRKRWRKRRWRKRWRK-NH2 (C-terminus assumed) [MU_33]
- IC50 [1]: 38 µM
- IC50 [2]: > 53 µM
- IC50 (Streptococcus pneumoniae): 53 µM

Substance: RRWRKRWRKWRWRKRWRK-NH2 (C-terminus assumed) [MU_28]
- IC50 [1]: 15 µM
- IC50 [2]: 11.5 µM
- IC50 (Streptococcus pneumoniae): 46 µM
- Antibacterial activity, in words, bacterium not specified [4]: particularly effective

Substance: RWRKRWRKWRWRKRWRK-NH2 (C-terminus assumed) [MU_32]
- IC50 [1]: 15 µM
- IC50 [2]: 12 µM
- IC50 (Streptococcus pneumoniae): 46 µM
- Antibacterial activity, in words, bacterium not specified [4]: particularly effective

Substance: apoE134-155: Azuma's shorter apoE peptide, stated as 18 amino acids in length (RVRLASHLRKLRKRLLRDADDL; UniProt P02649 152-173, looked up, fragment)
- Antibacterial activity reported by Azuma et al., in words (bacteria): no activity at all

Substance: apoE134-159: Azuma's shorter apoE peptides, label printed for both a 22 and a 26 amino acid peptide (RVRLASHLRKLRKRLLRDADDLQKRL; UniProt P02649 152-177, looked up, fragment)
- Antibacterial activity reported by Azuma et al., in words (bacteria): very low antibacterial activity; also recorded: greatly reduced antibacterial activity
